The supplement of paper PMC4862054

These compounds were tested on BT-474 (assay: normalised response (% of control), CellTox Green; higher = less cell death (100 = DMSO, 0 = benzethonium chloride kill control)). Settings: incubation time: 72 h.
Procedure, shortened: (§1)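 Each entry is the normalised signal at a single concentration within a series. The series comprised 5 concentrations in 10-fold steps over a compound-specific 10,000-fold range, placed in 384-well plates into which breast cancer cell lines were seeded as 20 µl suspension and incubated 72 h. CellTox Green (485/520 nm) fluorescence and then CellTiter-Glo luminescence were read, with signals normalised per plate to 0.1 % DMSO (100) and a positive kill control (0).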
`CC1(C)CCC(CN2CCN(c3ccc(C(=O)NS(=O)(=O)c4ccc(NCC5CCOCC5)c([N+](=O)[O-])c4)c(Oc4cnc5[nH]ccc5c4)c3)CC2)=C(c2ccc(Cl)cc2)C1` [ABT-199] (1000 nM) showed a normalised response of 99.9%.
Compound `CC(=O)N(O)CCCCCNC(=O)CCC(=O)N(O)CCCCCNC(=O)CCC(=O)N(O)CCCCCN` [Deferoxamine] (1000 nM) has a normalised response of 96.8%.
For `C[C@]12CC[C@@H]3c4ccc(OC(=O)N(CCCl)CCCl)cc4CC[C@H]3[C@@H]1CC[C@@H]2O` [Estramustine] (1000 nM), the normalised response was 89%.

Each compound was assayed on MDA-MB-231 in the same assay as above. Settings: incubation time: 72 h.
Procedure, shortened: as §1
Compound `CC1(C)CCC(CN2CCN(c3ccc(C(=O)NS(=O)(=O)c4ccc(NCC5CCOCC5)c([N+](=O)[O-])c4)c(Oc4cnc5[nH]ccc5c4)c3)CC2)=C(c2ccc(Cl)cc2)C1` [ABT-199] (1000 nM) has a normalised response of 102%.
Work on `CC(=O)N(O)CCCCCNC(=O)CCC(=O)N(O)CCCCCNC(=O)CCC(=O)N(O)CCCCCN` [Deferoxamine] (1000 nM) yielded a normalised response of 96.7%.
`C[C@]12CC[C@@H]3c4ccc(OC(=O)N(CCCl)CCCl)cc4CC[C@H]3[C@@H]1CC[C@@H]2O` [Estramustine] (1000 nM) was tested, and the normalised response was 94%.

Each compound was assayed on CAL-51 in the same assay as above. Settings: incubation time: 72 h.
Procedure, shortened: as §1
`CC1(C)CCC(CN2CCN(c3ccc(C(=O)NS(=O)(=O)c4ccc(NCC5CCOCC5)c([N+](=O)[O-])c4)c(Oc4cnc5[nH]ccc5c4)c3)CC2)=C(c2ccc(Cl)cc2)C1` [ABT-199] (1000 nM) showed a normalised response of 87.8%.
In the case of `CC(=O)N(O)CCCCCNC(=O)CCC(=O)N(O)CCCCCNC(=O)CCC(=O)N(O)CCCCCN` [Deferoxamine] (1000 nM), the normalised response is reported as 91.1%.
Work on `C[C@]12CC[C@@H]3c4ccc(OC(=O)N(CCCl)CCCl)cc4CC[C@H]3[C@@H]1CC[C@@H]2O` [Estramustine] (1000 nM) yielded a normalised response of 84.7%.

The compounds below were run on BT-549 in the same assay as above. Settings: incubation time: 72 h.
Procedure, shortened: as §1
`CC1(C)CCC(CN2CCN(c3ccc(C(=O)NS(=O)(=O)c4ccc(NCC5CCOCC5)c([N+](=O)[O-])c4)c(Oc4cnc5[nH]ccc5c4)c3)CC2)=C(c2ccc(Cl)cc2)C1` [ABT-199] (1000 nM) was tested, and the normalised response was 76.5%.
`CC(=O)N(O)CCCCCNC(=O)CCC(=O)N(O)CCCCCNC(=O)CCC(=O)N(O)CCCCCN` [Deferoxamine] (1000 nM) showed a normalised response of 102%.
For `C[C@]12CC[C@@H]3c4ccc(OC(=O)N(CCCl)CCCl)cc4CC[C@H]3[C@@H]1CC[C@@H]2O` [Estramustine] (1000 nM), the normalised response was 98.6%.

Each compound was assayed on CAL-85-1 in the same assay as above. Settings: incubation time: 72 h.
Procedure, shortened: as §1
For `CC1(C)CCC(CN2CCN(c3ccc(C(=O)NS(=O)(=O)c4ccc(NCC5CCOCC5)c([N+](=O)[O-])c4)c(Oc4cnc5[nH]ccc5c4)c3)CC2)=C(c2ccc(Cl)cc2)C1` [ABT-199] (1000 nM), the normalised response was 102%.
`CC(=O)N(O)CCCCCNC(=O)CCC(=O)N(O)CCCCCNC(=O)CCC(=O)N(O)CCCCCN` [Deferoxamine] (1000 nM) was tested, and the normalised response was 110%.
`C[C@]12CC[C@@H]3c4ccc(OC(=O)N(CCCl)CCCl)cc4CC[C@H]3[C@@H]1CC[C@@H]2O` [Estramustine] (1000 nM) was tested, and the normalised response was 107%.

The compounds below were run on MDA-MB-436 in the same assay as above. Settings: incubation time: 72 h.
Procedure, shortened: as §1
`CC1(C)CCC(CN2CCN(c3ccc(C(=O)NS(=O)(=O)c4ccc(NCC5CCOCC5)c([N+](=O)[O-])c4)c(Oc4cnc5[nH]ccc5c4)c3)CC2)=C(c2ccc(Cl)cc2)C1` [ABT-199] (1000 nM) gave a normalised response of 85%.
Work on `CC(=O)N(O)CCCCCNC(=O)CCC(=O)N(O)CCCCCNC(=O)CCC(=O)N(O)CCCCCN` [Deferoxamine] (1000 nM) yielded a normalised response of 73.7%.
In the case of `C[C@]12CC[C@@H]3c4ccc(OC(=O)N(CCCl)CCCl)cc4CC[C@H]3[C@@H]1CC[C@@H]2O` [Estramustine] (1000 nM), the normalised response is reported as 93.3%.

These compounds were tested on Hs578T in the same assay as above. Settings: incubation time: 72 h.
Procedure, shortened: as §1
Work on `CC1(C)CCC(CN2CCN(c3ccc(C(=O)NS(=O)(=O)c4ccc(NCC5CCOCC5)c([N+](=O)[O-])c4)c(Oc4cnc5[nH]ccc5c4)c3)CC2)=C(c2ccc(Cl)cc2)C1` [ABT-199] (1000 nM) yielded a normalised response of 105%.
`CC(=O)N(O)CCCCCNC(=O)CCC(=O)N(O)CCCCCNC(=O)CCC(=O)N(O)CCCCCN` [Deferoxamine] (1000 nM) showed a normalised response of 97.3%.

What follows are compounds tested on MCF-10A in the same assay as above. Settings: incubation time: 72 h.
Procedure, shortened: as §1
In the case of `CC1(C)CCC(CN2CCN(c3ccc(C(=O)NS(=O)(=O)c4ccc(NCC5CCOCC5)c([N+](=O)[O-])c4)c(Oc4cnc5[nH]ccc5c4)c3)CC2)=C(c2ccc(Cl)cc2)C1` [ABT-199] (1000 nM), the normalised response is reported as 112%.
In the case of `CC(=O)N(O)CCCCCNC(=O)CCC(=O)N(O)CCCCCNC(=O)CCC(=O)N(O)CCCCCN` [Deferoxamine] (1000 nM), the normalised response is reported as 79.7%.
`C[C@]12CC[C@@H]3c4ccc(OC(=O)N(CCCl)CCCl)cc4CC[C@H]3[C@@H]1CC[C@@H]2O` [Estramustine] (1000 nM) was tested, and the normalised response was 55.8%.

The compounds below were run on HCC1143 in the same assay as above. Settings: incubation time: 72 h.
Procedure, shortened: as §1
For `CC1(C)CCC(CN2CCN(c3ccc(C(=O)NS(=O)(=O)c4ccc(NCC5CCOCC5)c([N+](=O)[O-])c4)c(Oc4cnc5[nH]ccc5c4)c3)CC2)=C(c2ccc(Cl)cc2)C1` [ABT-199] (1000 nM), the normalised response was 74.1%.
Compound `CC(=O)N(O)CCCCCNC(=O)CCC(=O)N(O)CCCCCNC(=O)CCC(=O)N(O)CCCCCN` [Deferoxamine] (1000 nM) has a normalised response of 82.2%.
`C[C@]12CC[C@@H]3c4ccc(OC(=O)N(CCCl)CCCl)cc4CC[C@H]3[C@@H]1CC[C@@H]2O` [Estramustine] (1000 nM) showed a normalised response of 103%.

What follows are compounds tested on MFM-223 in the same assay as above. Settings: incubation time: 72 h.
Procedure, shortened: as §1
`CC1(C)CCC(CN2CCN(c3ccc(C(=O)NS(=O)(=O)c4ccc(NCC5CCOCC5)c([N+](=O)[O-])c4)c(Oc4cnc5[nH]ccc5c4)c3)CC2)=C(c2ccc(Cl)cc2)C1` [ABT-199] (1000 nM) was tested, and the normalised response was 99.2%.
`CC(=O)N(O)CCCCCNC(=O)CCC(=O)N(O)CCCCCNC(=O)CCC(=O)N(O)CCCCCN` [Deferoxamine] (1000 nM) was tested, and the normalised response was 70.8%.
With `C[C@]12CC[C@@H]3c4ccc(OC(=O)N(CCCl)CCCl)cc4CC[C@H]3[C@@H]1CC[C@@H]2O` [Estramustine] (1000 nM) the normalised response was 93.1%.

Each compound was assayed on DU-4475 in the same assay as above. Settings: incubation time: 72 h.
Procedure, shortened: as §1
For `CC1(C)CCC(CN2CCN(c3ccc(C(=O)NS(=O)(=O)c4ccc(NCC5CCOCC5)c([N+](=O)[O-])c4)c(Oc4cnc5[nH]ccc5c4)c3)CC2)=C(c2ccc(Cl)cc2)C1` [ABT-199] (1000 nM), the normalised response was 98%.
`CC(=O)N(O)CCCCCNC(=O)CCC(=O)N(O)CCCCCNC(=O)CCC(=O)N(O)CCCCCN` [Deferoxamine] (1000 nM) showed a normalised response of 97.5%.
`C[C@]12CC[C@@H]3c4ccc(OC(=O)N(CCCl)CCCl)cc4CC[C@H]3[C@@H]1CC[C@@H]2O` [Estramustine] (1000 nM) gave a normalised response of 96.5%.

What follows are compounds tested on MDA-MB-468 in the same assay as above. Settings: incubation time: 72 h.
Procedure, shortened: as §1
Compound `CC1(C)CCC(CN2CCN(c3ccc(C(=O)NS(=O)(=O)c4ccc(NCC5CCOCC5)c([N+](=O)[O-])c4)c(Oc4cnc5[nH]ccc5c4)c3)CC2)=C(c2ccc(Cl)cc2)C1` [ABT-199] (1000 nM) has a normalised response of 66.1%.
`CC(=O)N(O)CCCCCNC(=O)CCC(=O)N(O)CCCCCNC(=O)CCC(=O)N(O)CCCCCN` [Deferoxamine] (1000 nM) was tested, and the normalised response was 143%.
For `C[C@]12CC[C@@H]3c4ccc(OC(=O)N(CCCl)CCCl)cc4CC[C@H]3[C@@H]1CC[C@@H]2O` [Estramustine] (1000 nM), the normalised response was 182%.
